Where two headings read alike, the source gives them in different places.

Common to all, as to experiment: Thermal stability shift assay
What all share (type): binding

One test deals with T1, BMX (Homo sapiens, UniProt P51813).
T1 sequence (P51813 1-675): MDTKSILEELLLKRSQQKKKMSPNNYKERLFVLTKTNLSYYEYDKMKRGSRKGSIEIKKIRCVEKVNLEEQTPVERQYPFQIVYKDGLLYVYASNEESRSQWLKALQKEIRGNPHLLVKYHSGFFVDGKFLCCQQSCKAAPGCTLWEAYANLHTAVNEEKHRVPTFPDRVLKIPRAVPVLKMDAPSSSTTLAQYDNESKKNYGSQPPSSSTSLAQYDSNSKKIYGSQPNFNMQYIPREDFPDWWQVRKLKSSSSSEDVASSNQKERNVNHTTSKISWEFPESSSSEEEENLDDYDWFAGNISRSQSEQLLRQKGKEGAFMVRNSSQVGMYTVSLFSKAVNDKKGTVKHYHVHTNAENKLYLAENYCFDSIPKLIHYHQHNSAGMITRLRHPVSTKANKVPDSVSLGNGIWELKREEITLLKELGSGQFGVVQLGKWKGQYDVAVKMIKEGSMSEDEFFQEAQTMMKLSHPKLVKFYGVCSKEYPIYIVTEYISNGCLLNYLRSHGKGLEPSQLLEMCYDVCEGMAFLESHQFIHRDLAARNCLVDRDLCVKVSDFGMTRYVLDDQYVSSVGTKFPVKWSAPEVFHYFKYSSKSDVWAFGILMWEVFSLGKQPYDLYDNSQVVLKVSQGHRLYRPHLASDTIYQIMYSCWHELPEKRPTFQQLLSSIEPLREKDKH
To be noted: read-out: Tm shift BMX. In a few lines: (§1)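 Inhibitor (10 μM) was mixed with kinase (2 μM) in HEPES-buffered saline (10 mM, pH 7.5; 500 mM NaCl) plus SyproOrange, then the sample was heated stepwise in a real-time PCR machine to record denaturation.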

A further test concerns the target T2, DCAMKL1 (Homo sapiens, UniProt O15075).
T2 construct: purchased in-house (SGC Oxford thermal shift panel)
T2 sequence (O15075 1-740): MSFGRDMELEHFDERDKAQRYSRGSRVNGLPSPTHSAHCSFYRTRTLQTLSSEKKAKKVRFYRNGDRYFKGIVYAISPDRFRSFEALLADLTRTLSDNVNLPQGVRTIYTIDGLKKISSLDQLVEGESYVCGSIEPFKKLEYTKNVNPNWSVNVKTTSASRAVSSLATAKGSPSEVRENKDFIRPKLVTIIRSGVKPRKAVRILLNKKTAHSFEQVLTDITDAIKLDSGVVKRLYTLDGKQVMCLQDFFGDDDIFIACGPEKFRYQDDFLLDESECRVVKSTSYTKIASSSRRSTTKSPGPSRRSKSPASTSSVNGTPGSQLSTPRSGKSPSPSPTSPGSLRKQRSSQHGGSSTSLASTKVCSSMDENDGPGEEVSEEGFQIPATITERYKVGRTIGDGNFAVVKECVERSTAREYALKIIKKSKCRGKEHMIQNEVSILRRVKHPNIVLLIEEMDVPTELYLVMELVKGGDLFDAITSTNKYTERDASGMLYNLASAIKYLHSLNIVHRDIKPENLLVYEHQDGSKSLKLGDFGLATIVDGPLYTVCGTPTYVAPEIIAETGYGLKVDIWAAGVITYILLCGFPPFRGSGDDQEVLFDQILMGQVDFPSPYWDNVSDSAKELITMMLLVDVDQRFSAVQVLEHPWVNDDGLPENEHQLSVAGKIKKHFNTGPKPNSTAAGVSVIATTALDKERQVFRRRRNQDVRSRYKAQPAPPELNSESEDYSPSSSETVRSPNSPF
To be noted: read-out: Tm shift DCAMKL1. In short, it runs like this:
as §1

Another test concerns the target VRK2 (Homo sapiens, UniProt Q86Y07). The conditions noted are these: read-out: Tm shift VRK2. In short, it runs like this:
as §1

The target in another test is T3, PCTAIRE1 (Homo sapiens, UniProt Q00536).
T3 construct: purchased in-house (SGC Oxford thermal shift panel)
T3 sequence (Q00536 whole entry): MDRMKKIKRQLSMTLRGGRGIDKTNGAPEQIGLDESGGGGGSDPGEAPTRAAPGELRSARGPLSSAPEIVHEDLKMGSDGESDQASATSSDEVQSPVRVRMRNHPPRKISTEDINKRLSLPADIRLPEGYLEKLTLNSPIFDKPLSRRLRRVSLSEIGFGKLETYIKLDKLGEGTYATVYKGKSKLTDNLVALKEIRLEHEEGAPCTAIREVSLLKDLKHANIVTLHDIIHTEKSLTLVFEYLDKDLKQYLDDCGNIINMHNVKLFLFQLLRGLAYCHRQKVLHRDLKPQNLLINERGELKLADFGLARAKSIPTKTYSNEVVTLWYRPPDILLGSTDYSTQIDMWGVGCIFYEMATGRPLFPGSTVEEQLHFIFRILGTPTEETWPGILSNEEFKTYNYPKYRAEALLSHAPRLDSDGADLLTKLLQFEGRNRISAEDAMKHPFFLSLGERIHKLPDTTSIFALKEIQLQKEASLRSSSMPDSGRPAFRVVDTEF
The conditions noted are these: read-out: Tm shift PCTAIRE1. In short, it runs like this:
as §1

A further test addresses T4, DRAK1 (Homo sapiens, UniProt Q9UEE5).
T4 construct: purchased in-house (SGC Oxford thermal shift panel)
T4 sequence (Q9UEE5 1-414): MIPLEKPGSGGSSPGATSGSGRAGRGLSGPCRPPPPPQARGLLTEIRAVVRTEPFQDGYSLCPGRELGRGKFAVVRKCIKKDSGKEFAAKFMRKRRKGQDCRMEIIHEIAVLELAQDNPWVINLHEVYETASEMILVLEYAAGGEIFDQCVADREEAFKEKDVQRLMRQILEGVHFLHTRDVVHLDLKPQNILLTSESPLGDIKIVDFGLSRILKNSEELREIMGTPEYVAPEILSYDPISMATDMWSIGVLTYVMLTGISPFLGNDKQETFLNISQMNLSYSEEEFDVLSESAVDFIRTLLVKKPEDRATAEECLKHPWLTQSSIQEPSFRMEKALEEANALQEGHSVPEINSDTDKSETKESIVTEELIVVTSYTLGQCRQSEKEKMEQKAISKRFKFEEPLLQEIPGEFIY
To be noted: read-out: Tm shift DRAK1. In a few lines:
as §1

The next test addresses AKT3 (Homo sapiens, UniProt Q9Y243). To be noted: read-out: Tm shift AKT3. In a few lines: as §1
For another test, the target named is T5, MST2 (Homo sapiens, UniProt Q13188).
T5 construct: purchased in-house (SGC Oxford thermal shift panel)
T5 sequence (Q13188 1-491): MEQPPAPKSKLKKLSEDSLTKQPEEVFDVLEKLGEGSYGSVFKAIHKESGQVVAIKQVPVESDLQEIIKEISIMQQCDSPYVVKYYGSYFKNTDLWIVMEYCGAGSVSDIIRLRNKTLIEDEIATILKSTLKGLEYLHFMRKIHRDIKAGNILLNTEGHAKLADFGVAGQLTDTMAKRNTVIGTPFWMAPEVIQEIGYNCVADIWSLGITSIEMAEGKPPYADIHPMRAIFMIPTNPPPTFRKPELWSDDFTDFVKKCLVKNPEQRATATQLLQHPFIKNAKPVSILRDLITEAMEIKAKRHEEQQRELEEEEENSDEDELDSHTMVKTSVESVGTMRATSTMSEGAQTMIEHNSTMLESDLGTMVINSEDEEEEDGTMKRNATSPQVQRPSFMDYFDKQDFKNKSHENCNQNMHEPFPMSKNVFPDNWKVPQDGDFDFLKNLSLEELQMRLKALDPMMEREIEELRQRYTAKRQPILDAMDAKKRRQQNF
The conditions noted are these: read-out: Tm shift MST2. In a few lines: as §1

A further test addresses T6, OSR1 (Homo sapiens, UniProt O95747).
T6 construct: purchased in-house (SGC Oxford thermal shift panel)
The conditions noted are these: read-out: Tm shift OSR1. In short, it runs like this:
as §1

The target of another test is CHK2 (Homo sapiens, UniProt O96017). The conditions noted are these: read-out: Tm shift CHK2. In short, it runs like this: as §1
Sequence of CHK2 (O96017 whole entry): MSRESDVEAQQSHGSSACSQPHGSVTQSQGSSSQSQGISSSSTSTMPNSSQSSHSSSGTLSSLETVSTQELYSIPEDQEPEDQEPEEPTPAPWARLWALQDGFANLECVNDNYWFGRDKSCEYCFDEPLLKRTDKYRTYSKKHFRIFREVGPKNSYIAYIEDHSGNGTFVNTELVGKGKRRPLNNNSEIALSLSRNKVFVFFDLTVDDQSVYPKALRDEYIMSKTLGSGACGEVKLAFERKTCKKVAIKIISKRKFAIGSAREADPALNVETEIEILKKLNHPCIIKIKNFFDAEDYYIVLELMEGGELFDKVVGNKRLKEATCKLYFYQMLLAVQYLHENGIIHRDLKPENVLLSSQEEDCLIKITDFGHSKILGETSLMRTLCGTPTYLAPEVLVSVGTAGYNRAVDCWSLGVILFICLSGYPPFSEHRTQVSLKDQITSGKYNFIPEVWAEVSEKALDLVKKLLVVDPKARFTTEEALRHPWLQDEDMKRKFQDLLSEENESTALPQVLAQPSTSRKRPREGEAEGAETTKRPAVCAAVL

Sequence of VRK2 (Q86Y07 whole entry): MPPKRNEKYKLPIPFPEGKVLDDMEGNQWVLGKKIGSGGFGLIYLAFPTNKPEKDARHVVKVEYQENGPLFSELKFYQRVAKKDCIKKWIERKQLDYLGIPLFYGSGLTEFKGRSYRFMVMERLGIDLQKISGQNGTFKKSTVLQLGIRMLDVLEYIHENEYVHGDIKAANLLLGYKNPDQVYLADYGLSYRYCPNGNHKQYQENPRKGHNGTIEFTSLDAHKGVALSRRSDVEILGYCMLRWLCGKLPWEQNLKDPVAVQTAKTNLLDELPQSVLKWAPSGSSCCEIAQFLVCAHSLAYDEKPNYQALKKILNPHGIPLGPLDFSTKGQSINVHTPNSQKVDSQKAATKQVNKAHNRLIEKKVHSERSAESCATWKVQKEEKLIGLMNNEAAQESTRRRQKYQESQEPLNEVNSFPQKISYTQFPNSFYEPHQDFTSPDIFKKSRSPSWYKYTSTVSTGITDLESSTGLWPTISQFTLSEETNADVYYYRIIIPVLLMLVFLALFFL
Sequence of AKT3 (Q9Y243 whole entry): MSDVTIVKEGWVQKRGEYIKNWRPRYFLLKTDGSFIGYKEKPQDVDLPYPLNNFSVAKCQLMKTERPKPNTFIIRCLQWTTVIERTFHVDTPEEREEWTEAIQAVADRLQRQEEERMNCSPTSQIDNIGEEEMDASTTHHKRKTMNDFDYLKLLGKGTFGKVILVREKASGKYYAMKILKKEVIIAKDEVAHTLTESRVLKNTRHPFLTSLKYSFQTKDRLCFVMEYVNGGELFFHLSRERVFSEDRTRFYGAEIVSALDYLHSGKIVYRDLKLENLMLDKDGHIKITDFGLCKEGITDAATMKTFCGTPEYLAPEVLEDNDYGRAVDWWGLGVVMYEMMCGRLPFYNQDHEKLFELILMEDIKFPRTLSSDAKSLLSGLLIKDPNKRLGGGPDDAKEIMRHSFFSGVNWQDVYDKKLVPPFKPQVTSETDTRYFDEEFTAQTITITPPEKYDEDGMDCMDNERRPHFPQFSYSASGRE
T6 sequence (O95747 whole entry): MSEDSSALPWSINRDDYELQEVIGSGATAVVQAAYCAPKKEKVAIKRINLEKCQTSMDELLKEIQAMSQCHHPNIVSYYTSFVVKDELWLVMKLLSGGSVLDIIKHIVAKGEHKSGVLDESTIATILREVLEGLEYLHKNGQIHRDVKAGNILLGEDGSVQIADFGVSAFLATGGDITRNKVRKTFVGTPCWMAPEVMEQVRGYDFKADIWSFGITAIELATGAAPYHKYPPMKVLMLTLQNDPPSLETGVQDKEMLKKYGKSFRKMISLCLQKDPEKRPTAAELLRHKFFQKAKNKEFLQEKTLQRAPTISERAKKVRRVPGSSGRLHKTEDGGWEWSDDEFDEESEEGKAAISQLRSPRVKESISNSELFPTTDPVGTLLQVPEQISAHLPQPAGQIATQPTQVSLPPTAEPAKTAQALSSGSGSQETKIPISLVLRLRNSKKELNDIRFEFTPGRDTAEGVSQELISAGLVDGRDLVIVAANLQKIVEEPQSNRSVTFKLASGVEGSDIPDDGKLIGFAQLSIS

`Cn1c2c(Cl)c(Cl)ccc2c2c(C#N)c[nH]c(=O)c21` [compound 3, 7,8-Dichloro-9-Methyl-1-Oxo-2,9-Dihydro-1H-Pyrido[3,4-b]Indole-4-Carbonitrile]: the ΔTm at 10 µM at BMX (inhibitor 10 μM) was -0.1 °C; at DCAMKL1 (inhibitor 10 μM), 0 °C; on VRK2 (inhibitor 10 μM), 0.1 °C; on PCTAIRE1 (inhibitor 10 μM), 0.4 °C; at DRAK1 (inhibitor 10 μM), 1.7 °C; on AKT3 (inhibitor 10 μM), 0.1 °C. The ΔTm at 10 µM at MST2 (inhibitor 10 μM) is -0.5 °C; on OSR1 (inhibitor 10 μM), 0.3 °C; at CHK2 (inhibitor 10 μM), 0.5 °C.

`CCOC(=O)c1c(C(C#N)=CN)c2ccc(Cl)c(Cl)c2n1C` (mixture of isomers) [KH-CB20, (E/Z)-Ethyl 3-(2-Amino-1-Cyanovinyl)-6,7-Dichloro-1-Methyl-1H-Indole-2-Carboxylate]: the ΔTm at 10 µM on BMX is 0.2 °C; at DCAMKL1, -0.1 °C; on VRK2, 0.1 °C; on PCTAIRE1 it was 0.1 °C; at DRAK1, 2.6 °C; on AKT3, -0.3 °C. Besides, the ΔTm at 10 µM at MST2 worked out at 0.4 °C; at OSR1 it was 0.3 °C; at CHK2, 1 °C.

With `NC1=NC(=O)/C(=C2\CCNC(=O)c3[nH]c(Br)cc32)N1` [Hymenialdisine, hymenialdisine, reference compound], the ΔTm at 10 µM was -0.1 °C on BMX (inhibitor 10 μM); 0.5 °C at DCAMKL1 (inhibitor 10 μM); 0.8 °C at VRK2 (inhibitor 10 μM); 0.7 °C on PCTAIRE1 (inhibitor 10 μM); 14.8 °C on DRAK1 (inhibitor 10 μM); 1.3 °C at AKT3 (inhibitor 10 μM). The results for the ΔTm at 10 µM at MST2 (inhibitor 10 μM), at OSR1 (inhibitor 10 μM) and at CHK2 (inhibitor 10 μM) were 3.9 °C, 0.5 °C and 5.7 °C, respectively.

Consider `CCOC(=O)c1c(/C(C#N)=C\N)c2ccc(Cl)c(Cl)c2n1C` [KH-CB19, (E)-Ethyl 3-(2-Amino-1-Cyanovinyl)-6,7-Dichloro-1-Methyl-1H-Indole-2-Carboxylate], for which the ΔTm at 10 µM is 0.2 °C on BMX; -0.2 °C at DCAMKL1; -0.1 °C on VRK2; 0.4 °C on PCTAIRE1; 2.5 °C at DRAK1; -0.2 °C on AKT3. In addition, the ΔTm at 10 µM was 0.2 °C on MST2, 0.3 °C on OSR1 and 0.4 °C at CHK2.

`CCOC(=O)c1c(C(C#N)=CN(C)C)c2ccc(Cl)c(Cl)c2n1C` (mixture of isomers) [compound 2, (E/Z)-Ethyl 6,7-Dichloro-3-[1-Cyano-2-(Dimethylamino)Vinyl]-1-Methyl-1H-Indole-2-Carboxylate]: the ΔTm at 10 µM is -0.2 °C on BMX (inhibitor 10 μM); 0.7 °C at DCAMKL1 (inhibitor 10 μM); 0.2 °C on VRK2 (inhibitor 10 μM); 0.4 °C at PCTAIRE1 (inhibitor 10 μM); -0.2 °C at DRAK1 (inhibitor 10 μM); -0.2 °C on AKT3 (inhibitor 10 μM). Moreover, the ΔTm at 10 µM on MST2 (inhibitor 10 μM) turned out to be 0.3 °C; on OSR1 (inhibitor 10 μM), 0 °C; on CHK2 (inhibitor 10 μM), 0.3 °C.

These data come from paper PMC3145970, “Specific CLK Inhibitors from a Novel Chemotype for Regulation of Alternative Splicing” (Chemistry & Biology, 2011).
